Measurements from patent publication US20060173028A1, “Therapeutic and/or preventive agent for chronic skin disease” (Kyowa Hakko Kogyo Co., Ltd., priority 2003, published 2006).
Marks after values point to notes of the source that are not given here.

Tests used:
[1] = test system: oxazolone-induced ear swelling; experiment: Inhibitory effects on oxazolone-induced ear swelling in mice; type: in vivo, BALB/c mice; conditions: dose 100 μg/site, epicutaneous
Protocol: Six-week-old BALB/c mice (male, Charles River Japan, Inc.) were used for the experiment. […] The mice were placed in plastic cages (6 mice per cage) in a breeding room which was kept at a room temperature (19 to 25° C.) and a humidity of 30 to 70% and was illuminated for 12 hours a day (from 7:00 a.m. to 7:00 p.m.). The mice were allowed to freely access commercially available pellets and water. As an antigen solution, Oxazolone (Sigma-Aldrich) was dissolved in acetone (Kanto Kagaku) to prepare 0.5 weight/volume % of oxazolone-acetone solution. Compound (I) was dissolved in the antigen solution at 5 weight/volume % to prepare a Compound (I)-dissolving antigen solution. BALB/c mice were each applied with 100 μL of the antigen solution to the shaved abdomen for sensitization. Mice were shaved on abdomen on the previous day of the sensitization. […] Ear thickness was measured with a dial thickness gauge (Ozaki Seisakusho) just before and 24 hours after the application for inducing .the reaction, and the difference in the thickness was used as an indication of ear swelling. The inhibition ratio (%) against ear swelling was calculated using the following: Inhibition ratio (%)=[{(value in solvent administration group)−(value in Compound (I) administration group)}/{(value in solvent administration group)−(value in non-administration group)}]×100

[2] = test system: dermatitis induced by repeated application of oxazolone; experiment: Inhibitory effects on the increase of ear thickness in a mouse model of dermatitis induced by repeated application of oxazolone; type: in vivo, BALB/c mice; conditions: 28th day, dose 50 μg/site/time
Protocol: Six-week-old BALB/c mice (male, Charles River Japan, Inc.) were used for the experiment. […] The mice were placed in plastic cages (6 mice per cage) in a breeding room which was kept at a room temperature (19 to 25° C.) and a humidity of 30 to 70% and was illuminated for 12 hours a day (from 7:00 a.m. to 7:00 p.m.). The mice were allowed to freely access commercially available pellets and water.
The experiment was performed according to a method by Kitagaki et al. (J. Invest. Dermatol., […], 105: 749) with small modification.
As an antigen solution, Oxazolone (Sigma-Aldrich) was dissolved in acetone (Kanto Kagaku) to prepare 0.5 weight/volume % of oxazolone-acetone solution. Compound (I) was dissolved in the antigen solution at 5 weight/volume % to prepare a Compound (I)-dissolving antigen solution. BALB/c mice were each applied with 10 μL of the antigen solution to the ear for sensitization. […] On the 28th day when chronic dermatitis symptoms were observed, ear thickness was measured with a dial thickness gauge (Ozaki Seisakusho). The inhibition ratio (%) against the increase of ear thickness was calculated using the following: Inhibition ratio (%)=[{(value in solvent administration group)−(value in Compound (I) administration group)}/{(value in solvent administration group)−(value in non-administration group)}]×100

[3] = test system: delayed-type allergic reaction in the skin; conditions: animal model; Eur. J. Pharmacol., 2002, 446: 195; cited from earlier work
[4] = test system: chronic dermatitis models; conditions: J. Pharmacol. Exp. Ther., 1998, 287, p. 705; cited from earlier work

Compound	Auricular Edema ([1]; difference in ear thickness just before and 24 hours after induction, male BALB/c mice)	Inhibition Ratio against ear swelling ([1]; 24 hours after induction, relative to solvent and non-administration groups)	Auricle thickness ([2]; repeated application to the ear day 7 to 28, male BALB/c mice)	Inhibition Ratio against the increase of ear thickness ([2]; repeated application, relative to solvent and non-administration groups)	Effect on delayed-type allergic reaction in the skin [3]	Therapeutic effects on chronic dermatitis models [4]
COc1ccc(C(=O)Cc2c(Cl)cncc2Cl)c2c1OC1(CCCC1)O2 [Compound (I), 7-[2-(3,5-dichloro-4-pyridyl)-1-oxoethyl]-4-methoxy-spiro[1,3-benzodioxol-2,1′-cyclopentane]]	16** ×0.01 mm	64%	67** ×0.01 mm	41%		
COc1ccc([C@]2(C#N)CC[C@@H](C(=O)O)CC2)cc1OC1CCCC1 [SB207499]					inhibit a delayed-type allergic reaction in the skin	exhibit therapeutic effects on chronic dermatitis models
